Among the test systems are Vibrio harveyi; Streptococcus iniae; Lactococcus garvieae; Vibrio alginolyticus; Vibrio parahaemolyticus.
What all share (test): ≥ marks a high value that may be exact or a test limit, other limits are often not marked, values filed in µg/mL are converted to µM
Assay [1] deals with Staphylococcus aureus CCARM 3543.
Assay [2] concerns Pseudomonas aeruginosa CCARM 2109.
The test system of assay [3] is Candida albicans ATCC 64550.
In assay [4] the test system is Staphylococcus aureus CCARM 3001.
For assay [5], the system named is Salmonella typhimurium KCTC 1926.
For assay [6], the system named is Escherichia coli KCTC 1682.
The test system of assay [7] is Staphylococcus aureus KCTC 1621.
The subject of assay [8] is Pseudomonas aeruginosa CCARM 2095.
Assay [9] concerns Bacillus subtilis KCTC 3068.
The subject of assay [10] is Staphylococcus epidermidis KCTC 1917.
The subject of assay [11] is Pseudomonas aeruginosa KCTC 1637.
The test system of assay [12] is Yersinia enterocolitica BCRC 13999.
Assay [13] relates to Staphylococcus aureus BCRC 10780.
The test system of assay [14] is Listeria monocytogenes BCRC 14845.
The test system of assay [15] is Klebsiella aerogenes BCRC 10370.
Assay [16] deals with Staphylococcus xylosus BCRC 12930.
Assay [17] relates to Escherichia coli BCRC 10675.
Assay [18] concerns Pseudomonas aeruginosa BCRC 10944.
Assay [19] has as its system Vibrio parahaemolyticus BCRC 10806.
For assay [20], the system named is Enterobacter cloacae BCRC 10401.
Assay [21] deals with Staphylococcus aureus BCRC 10781.
The test system of assay [22] is Streptococcus equinus BCRC 14729.
For assay [23], the system named is Vibrio anguillarum serotype O1.
The test system of assay [24] is Klebsiella oxytoca BCRC 13985.
The subject of assay [25] is Vibrio alginolyticus BCRC 12829.
Assay [26] relates to Staphylococcus aureus ATCC 6538.
For assay [27], the system named is Micrococcus luteus ATCC 4698.
The test system of assay [28] is Staphylococcus epidermidis ATCC 12228.
Assay [29] has as its system Escherichia coli DH5alpha.

Values after ≈ are worked out from the molar mass of the structure shown.

For the molecule `CC(C)C[C@H](NC(=O)[C@H](Cc1c[nH]c2ccccc12)NC(=O)[C@H](CCCCN)NC(=O)[C@H](CCCCN)NC(=O)[C@H](Cc1c[nH]c2ccccc12)NC(=O)[C@H](CC(C)C)NC(=O)[C@H](CCCCN)NC(=O)[C@H](Cc1c[nH]c2ccccc12)NC(=O)[C@H](CC(C)C)NC(=O)[C@@H](N)CCCCN)C(=O)N[C@@H](CCCCN)C(N)=O` [KLWKLWKKWLK], the MIC is 4 µM (≈ 6.22 µg/mL) in assay [1]; 8 µM (≈ 12.4 µg/mL) in [2]; no less than 100 µM in assay [3]; 4 µM (≈ 6.22 µg/mL) in assay [4]; 1 µM (≈ 1.56 µg/mL) in [5]; 2 µM (≈ 3.11 µg/mL) in assay [6]. In addition, the MIC in [7] is 2 µM (≈ 3.11 µg/mL); in assay [8] it was 4 µM (≈ 6.22 µg/mL); in assay [9], 4 µM (≈ 6.22 µg/mL); in [10], 2 µM (≈ 3.11 µg/mL); in assay [11], 2 µM (≈ 3.11 µg/mL).
In the case of `CC(C)C[C@H](NC(=O)[C@@H](N)CCCN=C(N)N)C(=O)N[C@@H](Cc1c[nH]c2ccccc12)C(=O)N[C@@H](CCCN=C(N)N)C(=O)N[C@@H](CCCN=C(N)N)C(=O)N[C@@H](Cc1c[nH]c2ccccc12)C(=O)N[C@@H](CCCN=C(N)N)C(=O)N[C@@H](CCCN=C(N)N)C(=O)N[C@@H](Cc1c[nH]c2ccccc12)C(=O)N[C@@H](CCCN=C(N)N)C(=O)N[C@@H](CCCN=C(N)N)C(N)=O` [RLWRRWRRWRR], the MIC in [1] stood at 2 µM (≈ 3.56 µg/mL); in [2], 16 µM (≈ 28.5 µg/mL); in assay [4], 8 µM (≈ 14.3 µg/mL); in [5], 4 µM (≈ 7.13 µg/mL); in assay [6], 8 µM (≈ 14.3 µg/mL); in assay [7] it was 4 µM (≈ 7.13 µg/mL). The MIC stood at 16 µM (≈ 28.5 µg/mL) in assay [8], 4 µM (≈ 7.13 µg/mL) in assay [9], 2 µM (≈ 3.56 µg/mL) in assay [10] and 8 µM (≈ 14.3 µg/mL) in [11].
Regarding `CC[C@H](C)[C@H](NC(=O)[C@H](Cc1ccccc1)NC(=O)[C@H](CCCCN)NC(=O)[C@H](CC(N)=O)NC(=O)[C@@H](NC(=O)[C@H](Cc1ccc(O)cc1)NC(=O)[C@@H](NC(=O)[C@H](Cc1ccc(O)cc1)NC(=O)[C@H](Cc1ccccc1)NC(=O)[C@H](CCCCN)NC(=O)[C@H](CCCCN)NC(=O)[C@H](C)NC(=O)[C@H](CC(C)C)NC(=O)[C@H](CC(N)=O)NC(=O)[C@H](C)NC(=O)CN)[C@@H](C)O)[C@@H](C)CC)C(=O)N[C@@H](CC(N)=O)C(=O)N[C@@H](Cc1ccc(O)cc1)C(=O)N[C@@H](C)C(=O)N[C@@H](Cc1c[nH]c2ccccc12)C(=O)O` [GANLAKKFYTYINKFINYAW], the MIC was no less than 52.8 µM in [12]; no less than 52.8 µM in [13]; no less than 52.8 µM in assay [14]; 3.3 µM (≈ 8 µg/mL) with Vibrio harveyi; 13.2 µM (≈ 32 µg/mL) in [15]; no less than 106 µM in the assay on Streptococcus iniae. In addition, the MIC in assay [16] is 26.4 µM (≈ 64 µg/mL); against Lactococcus garvieae it was no less than 106 µM; in [17], 26.4 µM (≈ 64 µg/mL); in assay [18] it was no less than 52.8 µM; in assay [19], no less than 52.8 µM; in assay [20], 26.4 µM (≈ 64 µg/mL). Besides, the minimal inhibitory concentration (MIC) with Vibrio alginolyticus is 13.2 µM (≈ 32 µg/mL); in assay [21] it was no less than 52.8 µM; in assay [22], no less than 106 µM; in assay [23] it was 13.2 µM (≈ 32 µg/mL); with Vibrio parahaemolyticus, 6.6 µM (≈ 16 µg/mL); in assay [24], no less than 52.8 µM. Also, the MIC in [25] is no less than 52.8 µM.
For `CC(C)C[C@H](NC(=O)[C@H](CC(C)C)NC(=O)[C@H](CCCCN)NC(=O)[C@H](CO)NC(=O)[C@H](CC(C)C)NC(=O)[C@H](C)NC(=O)[C@H](CCCCN)NC(=O)[C@@H](NC(=O)[C@@H](NC(=O)[C@H](C)NC(=O)CNC(=O)[C@H](CC(C)C)NC(=O)[C@@H](N)Cc1ccccc1)C(C)C)C(C)C)C(=O)O` [FLGAVVKALSKLL], the MIC was 19.1 µM (≈ 26 µg/mL) in [26], 10.3 µM (≈ 14 µg/mL) in assay [27], 29.4 µM (≈ 40 µg/mL) in assay [28] and no less than 36.8 µM in [29].
For `CC[C@H](C)[C@H](NC(=O)[C@H](CCCCN)NC(=O)[C@H](CCCCN)NC(=O)[C@H](CC(C)C)NC(=O)[C@H](Cc1ccc(O)cc1)NC(=O)[C@H](CC(N)=O)NC(=O)[C@H](Cc1ccc(O)cc1)NC(=O)[C@@H](NC(=O)[C@@H](NC(=O)[C@H](CCCCN)NC(=O)[C@H](C)NC(=O)[C@H](Cc1ccc(O)cc1)NC(=O)[C@H](CCCCN)NC(=O)[C@H](C)NC(=O)CN)[C@@H](C)CC)[C@@H](C)CC)C(=O)N[C@@H](C)C(=O)N[C@@H](CC(N)=O)C(=O)N[C@@H](C)C(=O)N[C@@H](CC(C)C)C(=O)N[C@@H](Cc1c[nH]c2ccccc12)C(=O)O` [GAKYAKIIYNYLKKIANALW], the MIC in assay [12] is no less than 54.7 µM; in assay [13], 3.42 µM (≈ 8 µg/mL); in assay [14], 13.7 µM (≈ 32 µg/mL); in the assay with Vibrio harveyi, 1.71 µM (≈ 4 µg/mL); in assay [15] it was 6.83 µM (≈ 16 µg/mL); in the assay on Streptococcus iniae, 27.3 µM (≈ 64 µg/mL). For the same molecule, the MIC in assay [16] was 6.83 µM (≈ 16 µg/mL); against Lactococcus garvieae it was no less than 54.7 µM; in assay [17] it was 27.3 µM (≈ 64 µg/mL); in assay [18], no less than 54.7 µM; in assay [19], 6.83 µM (≈ 16 µg/mL); in assay [20], 6.83 µM (≈ 16 µg/mL). Also, the MIC in the assay with Vibrio alginolyticus is 6.83 µM (≈ 16 µg/mL); in [21], 6.83 µM (≈ 16 µg/mL); in [22] it was 13.7 µM (≈ 32 µg/mL); in assay [23] it was 27.3 µM (≈ 64 µg/mL); in the assay on Vibrio parahaemolyticus it was 6.83 µM (≈ 16 µg/mL); in assay [24], 13.7 µM (≈ 32 µg/mL). This molecule also yielded an MIC in [25] of 6.83 µM (≈ 16 µg/mL).
As for `CC(C)C[C@H](NC(=O)[C@H](CC(C)C)NC(=O)[C@H](CCCCN)NC(=O)[C@H](CO)NC(=O)[C@H](CC(C)C)NC(=O)[C@@H](NC(=O)[C@H](CCCCN)NC(=O)[C@H](Cc1ccccc1)NC(=O)[C@H](CC(C)C)NC(=O)[C@@H](NC(=O)CNC(=O)[C@H](CC(C)C)NC(=O)[C@@H](N)Cc1ccccc1)C(C)C)C(C)C)C(=O)O` [FLGVLFKVLSKLL], the MIC in assay [26] is 2.03 µM (≈ 3 µg/mL); in [27], 1.35 µM (≈ 2 µg/mL); in [28], 5.42 µM (≈ 8 µg/mL); in assay [29], no less than 271 µM.

The values above are taken from DBAASP.
